Experiments:
[1] = Evaluation of conversion rate to active form in BALB/c mouse plasma (Experimental Example 3); type: in vitro ADME; details: BALB/c, mouse, 0.2 μmol/L
Procedure: (§1) For Example 1, Example 2, Example 3, Example 4, Example 5, Example 6, Comparative Example 3, Comparative Example 4, Comparative Example 6, Comparative Example 7, Comparative Example 8, Comparative Example 9, Comparative Example 10 and Comparative Example 12, the attrition rate of the test compound and the conversion rate of the test compound to Alvocidib in human plasma and BALB/c mouse plasma were calculated by the following method.
(§2) The test compound was added to human plasma or BALB/c mouse plasma at a concentration of 0.2 μmol/L, and incubated at 37° C. The peak areas of the test compound and Alvocidib in the sample were determined by LC-MS/MS after 0, 30 and 60 minutes for Example 1, Example 2, Example 3, Example 4, Example 5 and Example 6, and after 0, 60 and 120 minutes for Comparative Example 3, Comparative Example 4, Comparative Example 6, Comparative Example 7, Comparative Example 8, Comparative Example 9, Comparative Example 10 and Comparative Example 12, and the attrition rate of the test compound and the conversion rate of the test compound to Alvocidib were calculated by the following formula. Attrition rate of test compound (%):(peak area of test compound in sample/peak area of test compound in sample after 0 minute)×100 Conversion rate to Alvocidib (%):(peak area of Alvocidib in sample/peak area of Alvocidib in reaction solution containing 0.2 μmol/L Alvocidib)×100
(§3) The measurement conditions for LC-MS/MS are as follows. • HPLC: Prominence system (Shimadzu Corporation) • MS/MS: • Example 1, Example 2, Example 3, Example 4, Example 5, Example 6, Comparative Example 8 (mouse), Comparative Example 10 (mouse) and Comparative Example 12 (mouse) • QTRAP5500 (SCIEX) • Comparative Example 6, Comparative Example 7, Comparative Example 8 (human), Comparative Example 9, Comparative Example 10 (human) and Comparative Example 12 (human) • 4000 QTRAP (SCIEX) • column: • other than Example 3 and Example 4 • Cadenza CD-C18, 3 μm, 50×2 mm (Imtakt Corporation) • Example 3 and Example 4 • Kinetex C8, 2.6 μm, 50×2.1 mm (Phenomenex) • column temperature: 40° C. • mobile phase: • A: water containing 0.1% formic acid • B: acetonitrile containing 0.1% formic acid • A/B (min): • Example 1, Example 2, Example 5, Example 6, Comparative Example 8 (mouse), Comparative Example 10 (mouse) and Comparative Example 12 (mouse) • 90/10(0)→40/60(5.0)→10/90(5.1)→10/90(6.5)→90/10(6.6)→90/10(8.0) • Example 3 and Example 4 • 86/14(0)→86/14(3.5)→10/90(5.5)→10/90(6.5)→86/14(6.6)→86/14(9.5) • Comparative Example 6, Comparative Example 7, Comparative Example 8 (human), Comparative Example 9, Comparative Example 10 (human) and Comparative Example 12 (human) • 90/10(0)→10/90(2.5)→10/90(3.5)→90/10(3.6)→90/10(5.0) • flow rate: 0.4 mL/min • detection: ESI (positive mode) • injection: 1 to 5 μL

[2] = Evaluation of conversion rate to active form in human plasma (Experimental Example 3); type: in vitro ADME; details: human, 0.2 μmol/L
Procedure: as §1, §2, §3

[3] = Evaluation of conversion rate to active form in buffer solution (Experimental Example 1); type: physicochemical
Procedure: For Examples 1 to 16 and Comparative Examples 1 to 14, the attrition rate of the test compound and the conversion rate of the test compound to Alvocidib in a buffer solution were calculated by the following method.
Examples 1 to 16 and Comparative Examples 1 to 14 were each left in buffer solutions adjusted to pH 5.0, 5.5, 6.0, 6.5, 7.0 and 7.4, respectively, at a concentration of 25 umol/L at 37° C. After 0, 0.5, 1, 2 and 3 hours, the residual rates of the compounds of Examples […] and the production rate of Alvocidib were determined by HPLC.
The buffer solutions used at each pH are as follows. • pH 5.0: 50 mM citrate buffer solution (pH 5.0) • pH 5.5: 50 mM citrate buffer solution (pH 5.5) • pH 6.0: 50 mM phosphate buffer solution (pH 6.0) • pH 6.5: 50 mM phosphate buffer solution (pH 6.5) • pH 7.0: 50 mM phosphate buffer solution (pH 7.0) • pH 7.4: 50 mM phosphate buffer solution (pH 7.4)
The measurement conditions for HPLC are as follows.

CC(C)[C@H](N)C(=O)O[C@@H]1CN(C)CC[C@@H]1c1c(O)cc(O)c2c(=O)cc(-c3ccccc3Cl)oc12 [Comparative Example 10, reference compound]
Production rate (%) of Alvocidib ([1]; 0 min): 1% | Residual rate (%) of test compound ([1]; 0 min): 100% | Production rate (%) of Alvocidib ([1]; 60 min): 5% | Residual rate (%) of test compound ([1]; 60 min): 84% | Production rate (%) of Alvocidib ([1]; 120 min): 6% | Residual rate (%) of test compound ([1]; 120 min): 89% | Production rate (%) of Alvocidib ([2]; 0 min): 0% | Residual rate (%) of test compound ([2]; 0 min): 100% | Production rate (%) of Alvocidib ([2]; 60 min): 2% | Residual rate (%) of test compound ([2]; 60 min): 104% | Production rate (%) of Alvocidib ([2]; 120 min): 3% | Residual rate (%) of test compound ([2]; 120 min): 105% | Production rate of Alvocidib ([3]; pH5.0, 0 hr): 2.0% | Residual rate ([3]; pH5.0, 0 hr): 93.4% | Production rate of Alvocidib ([3]; pH5.0, 0.5 hr): 2.3% | Residual rate ([3]; pH5.0, 0.5 hr): 93.2% | Production rate of Alvocidib ([3]; pH5.0, 1 hr): 2.7% | Residual rate ([3]; pH5.0, 1 hr): 92.7% | Production rate of Alvocidib ([3]; pH5.0, 2 hr): 3.7% | Residual rate ([3]; pH5.0, 2 hr): 91.4% | Production rate of Alvocidib ([3]; pH5.0, 3 hr): 4.2% | Residual rate ([3]; pH5.0, 3 hr): 91.2% | Production rate of Alvocidib ([3]; pH5.5, 0 hr): 2.0% | Residual rate ([3]; pH5.5, 0 hr): 93.2% | Production rate of Alvocidib ([3]; pH5.5, 0.5 hr): 2.7% | Residual rate ([3]; pH5.5, 0.5 hr): 92.7% | Production rate of Alvocidib ([3]; pH5.5, 1 hr): 3.7% | Residual rate ([3]; pH5.5, 1 hr): 91.7% | Production rate of Alvocidib ([3]; pH5.5, 2 hr): 5.5% | Residual rate ([3]; pH5.5, 2 hr): 89.9% | Production rate of Alvocidib ([3]; pH5.5, 3 hr): 6.8% | Residual rate ([3]; pH5.5, 3 hr): 88.7% | Production rate of Alvocidib ([3]; pH6.0, 0 hr): 2.1% | Residual rate ([3]; pH6.0, 0 hr): 93.1% | Production rate of Alvocidib ([3]; pH6.0, 0.5 hr): 4.4% | Residual rate ([3]; pH6.0, 0.5 hr): 90.7% | Production rate of Alvocidib ([3]; pH6.0, 1 hr): 7.2% | Residual rate ([3]; pH6.0, 1 hr): 88.6% | Production rate of Alvocidib ([3]; pH6.0, 2 hr): 12.8% | Residual rate ([3]; pH6.0, 2 hr): 83.1% | Production rate of Alvocidib ([3]; pH6.0, 3 hr): 16.3% | Residual rate ([3]; pH6.0, 3 hr): 79.7% | Production rate of Alvocidib ([3]; pH6.5, 0 hr): 2.3% | Residual rate ([3]; pH6.5, 0 hr): 93.2% | Production rate of Alvocidib ([3]; pH6.5, 0.5 hr): 5.1% | Residual rate ([3]; pH6.5, 0.5 hr): 90.9% | Production rate of Alvocidib ([3]; pH6.5, 1 hr): 8.8% | Residual rate ([3]; pH6.5, 1 hr): 87.4% | Production rate of Alvocidib ([3]; pH6.5, 2 hr): 15.6% | Residual rate ([3]; pH6.5, 2 hr): 81.1% | Production rate of Alvocidib ([3]; pH6.5, 3 hr): 20.2% | Residual rate ([3]; pH6.5, 3 hr): 76.6% | Production rate of Alvocidib ([3]; pH7.0, 0 hr): 2.1% | Residual rate ([3]; pH7.0, 0 hr): 93.2% | Production rate of Alvocidib ([3]; pH7.0, 0.5 hr): 5.2% | Residual rate ([3]; pH7.0, 0.5 hr): 92.3% | Production rate of Alvocidib ([3]; pH7.0, 1 hr): 8.5% | Residual rate ([3]; pH7.0, 1 hr): 88.2% | Production rate of Alvocidib ([3]; pH7.0, 2 hr): 15.5% | Residual rate ([3]; pH7.0, 2 hr): 81.5% | Production rate of Alvocidib ([3]; pH7.0, 3 hr): 19.5% | Residual rate ([3]; pH7.0, 3 hr): 75.7% | Production rate of Alvocidib ([3]; pH7.4, 0 hr): 2.1% | Residual rate ([3]; pH7.4, 0 hr): 93.2% | Conversion to Alvocidib at pH 7.4 ([3]; pH 7.4, 37° C., up to 3 hours): slowly converted to Alvocidib | Production rate of Alvocidib ([3]; pH7.4, 0.5 hr): 4.6% | Residual rate ([3]; pH7.4, 0.5 hr): 92.2% | Production rate of Alvocidib ([3]; pH7.4, 1 hr): 7.5% | Residual rate ([3]; pH7.4, 1 hr): 89.3% | Production rate of Alvocidib ([3]; pH7.4, 2 hr): 13.3% | Residual rate ([3]; pH7.4, 2 hr): 82.9% | Production rate of Alvocidib ([3]; pH7.4, 3 hr): 17.1% | Residual rate ([3]; pH7.4, 3 hr): 78.4%
